# Data reported in PMC4102965 (ACS Chemical Neuroscience, 2014).
# Like-named read-outs stand apart in the source and are kept apart here. Marks after values point to notes of the source that are not given here.
# Legend:
# [1] = target: gabapentin-binding site (presumably α2-δ subunit proteins) (Rattus norvegicus, UniProt P54290); test: [3H]gabapentin-binding assay, rat cerebral cortex membranes
# [2] = tested on: neuromuscular coordination in rats; test: Rotarod test; settings: for duration (s) 1 h / duration (s) 2 h / duration (s) 3 h: mean (SEM), max 180 s
# [3] = tested on: SNL mice; test: Anti-allodynia test in SNL; settings: 30 mg/kg oral gavage
# [4] = tested on: PSL rats; test: Anti-allodynia test in PSL; type: in vivo; settings: 30 mg/kg oral
# [5] = tested on: SNL rats; settings: previously reported; cited from earlier work
# [6] = human; cited from earlier work
# [7] = dog; cited from earlier work
# [8] = Pharmacokinetics after single oral dosing, plasma and brain by LC-MS/MS; type: in vivo, rats; settings: male, SD, rat, 30 mg/kg
# gabapentin-binding site (presumably α2-δ subunit proteins), sequence (P54290 25-1091): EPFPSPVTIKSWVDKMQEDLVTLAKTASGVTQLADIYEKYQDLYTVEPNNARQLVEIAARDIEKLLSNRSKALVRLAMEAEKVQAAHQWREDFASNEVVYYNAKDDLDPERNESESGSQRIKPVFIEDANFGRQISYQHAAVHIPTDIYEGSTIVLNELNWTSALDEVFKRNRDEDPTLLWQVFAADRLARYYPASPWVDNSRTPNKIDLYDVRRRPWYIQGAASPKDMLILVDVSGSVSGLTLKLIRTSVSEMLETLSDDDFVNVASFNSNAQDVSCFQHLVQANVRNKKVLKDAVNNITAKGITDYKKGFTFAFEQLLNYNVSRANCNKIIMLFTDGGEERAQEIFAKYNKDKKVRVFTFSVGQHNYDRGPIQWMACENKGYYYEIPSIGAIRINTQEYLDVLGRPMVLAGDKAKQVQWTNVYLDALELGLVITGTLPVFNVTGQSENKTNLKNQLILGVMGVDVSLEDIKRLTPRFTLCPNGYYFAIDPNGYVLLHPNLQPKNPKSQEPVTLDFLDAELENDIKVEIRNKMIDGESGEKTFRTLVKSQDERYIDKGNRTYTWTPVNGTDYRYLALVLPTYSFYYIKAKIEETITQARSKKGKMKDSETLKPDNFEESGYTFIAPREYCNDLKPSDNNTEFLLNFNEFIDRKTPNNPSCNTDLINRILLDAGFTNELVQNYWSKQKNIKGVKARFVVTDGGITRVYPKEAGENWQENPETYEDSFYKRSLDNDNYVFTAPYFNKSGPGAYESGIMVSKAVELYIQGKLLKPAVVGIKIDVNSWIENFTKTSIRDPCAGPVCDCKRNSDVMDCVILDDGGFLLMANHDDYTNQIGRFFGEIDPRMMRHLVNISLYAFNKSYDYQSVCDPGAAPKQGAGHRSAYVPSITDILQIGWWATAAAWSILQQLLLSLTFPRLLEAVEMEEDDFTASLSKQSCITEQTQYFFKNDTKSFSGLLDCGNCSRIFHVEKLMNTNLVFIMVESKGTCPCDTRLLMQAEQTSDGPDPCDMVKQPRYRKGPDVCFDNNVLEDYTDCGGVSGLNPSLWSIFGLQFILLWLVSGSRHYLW
compound,measurement,setting,value
"CC(C)CC(CN)CC(=O)O (centres unmarked) [pregabalin, 3-isobutyl-γ-aminobutyric acid]",RBA (%),[1]; IC50 of pregabalin divided by IC50 of test compound,100%
same,inhibition at 0.39 µM,[1]; read-out: % inhibition (at μM),79%
same,duration (s) 1 h,[2]; 10 mg/kg oral,180 (0.0) s
same,duration (s) 2 h,[2]; 10 mg/kg oral,160 (19.8) s
same,duration (s) 3 h,"[2]; 10 mg/kg oral, 10 mg/kg",significantly shortened
same,duration (s) 1 h,[2]; 30 mg/kg oral,180 (0.0) s
same,duration (s) 2 h,[2]; 30 mg/kg oral,93 (24.4)^## s
same,duration (s) 3 h,[2]; 30 mg/kg oral,12 (3.7)^## s
same,duration (s) 1 h,[2]; 100 mg/kg oral,53 (11.5)^# s
same,duration (s) 2 h,[2]; 100 mg/kg oral,13 (6.3)^## s
same,duration (s) 3 h,[2]; 100 mg/kg oral,6 (2.1)^## s
same,effect on neuromuscular coordination (duration on the rotating rods),"[2]; oral, over the doses tested",significantly and dose-dependently reduced the duration
same,"antiallodynic activity (pain thresholds, paw withdrawal to von Frey filaments)",[3]; SNL mice,significant antiallodynic activity
same,pain thresholds in sham mice (hypalgesic effect),[3]; sham mice,significantly increased the pain thresholds in sham mice at the late time point of 180 min
same,analgesic effects,[4]; PSL (Seltzer) rats,significant analgesic effects
same,time at which efficacy on the ipsilateral side peaked,[4]; PSL rats,180 min
same,time up to which efficacy on the ipsilateral side was sustained,[4]; PSL rats,300 min
same,hypalgesic effect on the contralateral side,"[4]; PSL rats, 180 min after administration",remarkable hypalgesic effect
same,effect on pain thresholds on both sides of SNL rats,[5],bilateral hypalgesic activity
same,plasma half-life (T1/2),[6],around 6 h
same,plasma half-life (T1/2),[7],around 6 h
same,concentration at 1 h,[8]; brain,12.4 µM
same,concentration at 1 h,[8]; plasma,109 µM
